Data set [1] concerns the target Sodium channel protein type 5 subunit alpha (Homo sapiens, UniProt Q14524). Briefly: Inhibition of human Nav1.5 expressed in CHOK1 cells at < 33 uM at -90 mV holding potential by Ionwork-based analysis. In kind it is cell-based.
Data set [2] in a line: Volume of distribution at steady state in cynomolgus monkey at 1 mg/kg, iv or 2 mg/kg, po after 48 hrs. In kind it is ADME, organism-based, Macaca fascicularis. To be noted: in vivo, read-out: Vdss.
The target in data set [3] is Potassium voltage-gated channel subfamily E member 1 (Homo sapiens, UniProt P15382). Briefly: Inhibition of human minK expressed in CHOK1 cells at < 33 uM at -80 mV holding potential by Ionwork-based analysis. It is filed as cell-based.
Data set [4] concerns the target Cytochrome P450 2C9 (Homo sapiens, UniProt P11712). Nature of the data set: Inhibition of recombinant human CYP2C9 expressed in Escherichia coli using coumarin based substrate by fluorescence assay. It is filed as ADME.
A short description of data set [5]: Genotoxicity in Salmonella typhimurium by Ames test. It is filed as toxicity. To be noted: salmonella enterica subsp. enterica serovar typhimurium. In general terms: The Ames test uses bacterial strains that need an amino acid and regain growth without it when mutated back.
A short description of data set [6]: Thermodynamic solubility of compound in pH 7.4 PBS at 1 mg/ml incubated for 24 hrs under shaking condition by LC-MS/MS analysis. In kind it is physicochemical. To be noted: read-out: Therm_solubility.
Data set [7] has as its target T1, A-type potassium channel modulatory protein KCNIP2 (Homo sapiens) (UniProt Q9NS61).
T1 sequence (whole entry): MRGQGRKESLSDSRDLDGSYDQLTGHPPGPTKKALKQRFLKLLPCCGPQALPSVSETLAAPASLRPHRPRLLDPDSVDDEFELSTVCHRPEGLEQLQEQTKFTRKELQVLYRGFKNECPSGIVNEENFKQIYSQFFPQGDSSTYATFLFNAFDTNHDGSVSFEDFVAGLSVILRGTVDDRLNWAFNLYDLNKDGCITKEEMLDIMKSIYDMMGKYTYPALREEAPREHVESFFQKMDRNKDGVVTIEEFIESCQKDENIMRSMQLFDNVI
Briefly: Inhibition of human KvChIP2 expressed in CHOK1 cells at < 33 uM at -90 mV holding potential by Ionwork-based analysis. It is filed as cell-based.

The target of data set [8] is Cytochrome P450 2D6 (Homo sapiens, UniProt P10635). Briefly: Inhibition of recombinant human CYP2D6 using coumarin based substrate by fluorescence assay. In kind it is ADME.
The target in data set [9] is Voltage-dependent L-type calcium channel subunit alpha-1C (Homo sapiens, UniProt Q13936). Briefly: Inhibition of human Cav1.2 expressed in CHOK1 cells at < 33 uM at -65 mV holding potential by Ionwork-based analysis. In kind it is cell-based.
The nature of data set [10]: Fraction unbound in Sprague-Dawley rat plasma by equilibrium dialysis based LC-MS analysis. It is filed as ADME, cell-free. On the technique in general: In equilibrium dialysis free small molecules cross a membrane that holds back macromolecules.
Data set [11] in a line: Toxicity in rat assessed as liver hypertrophy at 100 mg/kg, po after 7 days. In kind it is organism-based. To be noted: in vivo.
In data set [12] the test system is Rattus norvegicus. Nature of the data set: In vivo inhibition of LTC4S in po dosed Sprague-Dawley rat assessed as unbound drug concentration required for inhibition of calcium ionophore A23187-induced cysteinyl leukotrienes production in BAL fluid by LC-MS/MS analysis. In kind it is functional.
The subject of data set [13] is Blood. Briefly: Effect on arachidonic acid pathway in calcium ionophore A23187-stimulated healthy human whole blood assessed as increase in lipoxin level preincubated for 30 mins followed by calcium ionophore A23187 stimulation and measured after 60 mins by LC-MS analysis. It is filed as functional, tissue-based.
For data set [14], the system named is Blood. Nature of the data set: Preservation of LXA4 level in calcium ionophore A23187-stimulated asthmatic human whole blood preincubated for 30 mins followed by calcium ionophore A23187 stimulation and measured after 60 mins by LC-MS analysis. It is filed as functional, tissue-based.
In data set [15] the target is Cytochrome P450 2C19 (Homo sapiens, UniProt P33261). Nature of the data set: Inhibition of recombinant human CYP2C19 using coumarin based substrate by fluorescence assay. It is filed as ADME.
The nature of data set [16]: Apparent permeability across apical to basolateral side in human Caco2 cells. To be noted: Caco-2.
Data set [17] is described as follows: Fraction unbound in Beagle dog plasma by equilibrium dialysis based LC-MS analysis. In kind it is ADME, cell-free, Canis lupus familiaris.
The nature of data set [18]: AUC in po dosed rat at NOAEL measured after 7 days. It is filed as ADME, organism-based. To be noted: in vivo.
A short description of data set [19]: Clearance in Han Wistar rat at 0.5 mg/kg, iv or 1 mg/kg, po after 24 hrs. In kind it is ADME, organism-based. To be noted: in vivo.
A short description of data set [20]: Intrinsic clearance in human hepatocytes at 1 uM assessed as per million cells after 2 to 60 mins by LC-MS/MS analysis. It is filed as ADME, cell-based, Hepatocyte. To be noted: read-out: CLH.
Data set [21] can be described thus: Volume of distribution at steady state in Han Wistar rat at 0.5 mg/kg, iv or 1 mg/kg, po after 24 hrs. To be noted: in vivo, read-out: Vdss. In kind it is ADME, organism-based.
Data set [22] can be described thus: Oral bioavailability in Beagle dog at 2 mg/kg via gavage after 48 hrs. To be noted: in vivo. In kind it is ADME, organism-based, Canis lupus familiaris.
Data set [23] has as its target T2, Cytochrome P450 1A2 (Homo sapiens, UniProt P05177).
T2 sequence (P05177 whole entry): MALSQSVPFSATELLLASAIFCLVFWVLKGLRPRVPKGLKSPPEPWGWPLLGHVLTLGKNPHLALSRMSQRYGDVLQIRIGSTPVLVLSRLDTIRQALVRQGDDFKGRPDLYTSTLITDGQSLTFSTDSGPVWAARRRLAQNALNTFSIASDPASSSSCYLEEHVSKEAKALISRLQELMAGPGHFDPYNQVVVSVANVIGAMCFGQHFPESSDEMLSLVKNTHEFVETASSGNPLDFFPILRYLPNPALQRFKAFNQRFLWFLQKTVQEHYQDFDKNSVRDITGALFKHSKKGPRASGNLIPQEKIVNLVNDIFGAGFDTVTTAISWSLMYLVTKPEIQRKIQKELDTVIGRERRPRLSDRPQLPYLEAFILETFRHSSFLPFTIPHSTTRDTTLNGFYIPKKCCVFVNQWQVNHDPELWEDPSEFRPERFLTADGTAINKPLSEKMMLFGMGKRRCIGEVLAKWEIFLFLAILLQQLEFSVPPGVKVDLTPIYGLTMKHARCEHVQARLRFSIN
Briefly: Inhibition of recombinant human CYP1A2 using coumarin based substrate by fluorescence assay. It is filed as ADME.

A short description of data set [24]: Effective half life in cynomolgus monkey at 1 mg/kg, iv or 2 mg/kg, po after 48 hrs. It is filed as ADME, organism-based, Macaca fascicularis. To be noted: in vivo, read-out: t1/2eff (converted).

Each structure is given as a SMILES string. ≈ marks a conversion by molar mass, not a printed value. Calls of active or inactive are those of the source. The calls are words filed in the database; no cut-off is given here. A value given as a limit tells only on which side of the number the result lay.

Sodium channel protein type 5 subunit alpha, sequence (Q14524 whole entry): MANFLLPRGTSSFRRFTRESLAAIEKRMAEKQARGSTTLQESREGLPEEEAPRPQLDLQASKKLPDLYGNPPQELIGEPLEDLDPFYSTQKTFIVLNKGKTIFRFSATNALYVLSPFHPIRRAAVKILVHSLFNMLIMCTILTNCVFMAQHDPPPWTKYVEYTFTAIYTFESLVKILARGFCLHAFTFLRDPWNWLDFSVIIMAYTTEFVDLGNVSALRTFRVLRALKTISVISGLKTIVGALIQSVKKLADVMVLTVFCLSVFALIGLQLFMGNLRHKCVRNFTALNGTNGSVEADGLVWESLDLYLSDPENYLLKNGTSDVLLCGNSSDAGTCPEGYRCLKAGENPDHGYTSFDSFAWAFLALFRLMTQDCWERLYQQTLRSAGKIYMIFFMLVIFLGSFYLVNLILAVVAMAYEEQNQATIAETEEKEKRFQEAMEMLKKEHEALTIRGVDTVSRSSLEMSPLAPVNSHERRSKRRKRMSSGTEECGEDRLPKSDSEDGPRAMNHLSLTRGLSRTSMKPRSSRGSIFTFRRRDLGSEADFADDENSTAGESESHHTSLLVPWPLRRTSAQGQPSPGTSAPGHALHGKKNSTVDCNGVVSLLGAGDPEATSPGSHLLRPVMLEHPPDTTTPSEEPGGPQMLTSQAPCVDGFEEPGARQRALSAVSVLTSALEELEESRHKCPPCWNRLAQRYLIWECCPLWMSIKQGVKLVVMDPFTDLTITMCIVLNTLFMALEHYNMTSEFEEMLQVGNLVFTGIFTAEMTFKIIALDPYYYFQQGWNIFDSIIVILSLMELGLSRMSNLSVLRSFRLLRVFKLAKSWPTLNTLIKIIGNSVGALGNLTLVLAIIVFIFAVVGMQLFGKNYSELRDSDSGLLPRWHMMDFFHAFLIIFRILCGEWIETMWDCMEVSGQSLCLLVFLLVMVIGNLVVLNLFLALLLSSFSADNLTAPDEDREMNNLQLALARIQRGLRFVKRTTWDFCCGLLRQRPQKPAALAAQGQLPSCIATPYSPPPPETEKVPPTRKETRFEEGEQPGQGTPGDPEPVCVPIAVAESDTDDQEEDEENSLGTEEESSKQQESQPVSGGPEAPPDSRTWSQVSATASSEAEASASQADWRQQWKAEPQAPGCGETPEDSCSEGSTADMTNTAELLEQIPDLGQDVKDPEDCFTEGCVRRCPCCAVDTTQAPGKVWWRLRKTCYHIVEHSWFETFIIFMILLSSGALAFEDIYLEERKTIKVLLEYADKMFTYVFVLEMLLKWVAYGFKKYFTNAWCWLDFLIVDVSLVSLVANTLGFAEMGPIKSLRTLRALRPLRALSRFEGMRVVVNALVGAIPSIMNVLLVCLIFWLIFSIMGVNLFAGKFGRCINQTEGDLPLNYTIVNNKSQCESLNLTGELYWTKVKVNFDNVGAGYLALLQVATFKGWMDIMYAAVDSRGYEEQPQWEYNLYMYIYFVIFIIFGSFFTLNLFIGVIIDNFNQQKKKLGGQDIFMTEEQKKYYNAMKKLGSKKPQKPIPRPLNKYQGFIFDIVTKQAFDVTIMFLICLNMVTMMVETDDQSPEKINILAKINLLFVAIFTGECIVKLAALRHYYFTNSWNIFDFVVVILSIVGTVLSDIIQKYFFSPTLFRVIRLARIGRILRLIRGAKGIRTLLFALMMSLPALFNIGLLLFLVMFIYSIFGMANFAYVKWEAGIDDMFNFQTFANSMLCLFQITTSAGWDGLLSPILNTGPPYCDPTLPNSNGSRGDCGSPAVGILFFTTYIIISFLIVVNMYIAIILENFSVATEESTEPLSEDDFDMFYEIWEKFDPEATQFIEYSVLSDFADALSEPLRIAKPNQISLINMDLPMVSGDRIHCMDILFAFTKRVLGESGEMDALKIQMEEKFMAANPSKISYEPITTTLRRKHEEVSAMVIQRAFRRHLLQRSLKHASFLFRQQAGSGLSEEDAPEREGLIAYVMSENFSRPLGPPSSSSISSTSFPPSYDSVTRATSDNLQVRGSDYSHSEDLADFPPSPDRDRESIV
Cytochrome P450 2D6, sequence (P10635 whole entry): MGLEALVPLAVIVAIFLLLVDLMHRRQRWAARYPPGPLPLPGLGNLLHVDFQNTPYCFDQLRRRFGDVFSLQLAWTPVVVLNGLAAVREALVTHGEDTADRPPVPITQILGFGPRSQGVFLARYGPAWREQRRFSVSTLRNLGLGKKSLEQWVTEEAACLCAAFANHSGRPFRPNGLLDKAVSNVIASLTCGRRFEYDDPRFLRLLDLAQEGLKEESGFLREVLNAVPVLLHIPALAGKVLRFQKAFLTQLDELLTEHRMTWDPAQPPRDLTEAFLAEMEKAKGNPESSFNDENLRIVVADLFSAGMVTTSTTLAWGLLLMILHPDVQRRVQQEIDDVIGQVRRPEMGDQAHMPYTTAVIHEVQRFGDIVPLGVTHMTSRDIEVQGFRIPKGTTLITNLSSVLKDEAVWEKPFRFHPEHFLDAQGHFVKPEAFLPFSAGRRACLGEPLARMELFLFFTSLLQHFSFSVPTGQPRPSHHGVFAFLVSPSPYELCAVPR
Cytochrome P450 2C9, sequence (P11712 whole entry): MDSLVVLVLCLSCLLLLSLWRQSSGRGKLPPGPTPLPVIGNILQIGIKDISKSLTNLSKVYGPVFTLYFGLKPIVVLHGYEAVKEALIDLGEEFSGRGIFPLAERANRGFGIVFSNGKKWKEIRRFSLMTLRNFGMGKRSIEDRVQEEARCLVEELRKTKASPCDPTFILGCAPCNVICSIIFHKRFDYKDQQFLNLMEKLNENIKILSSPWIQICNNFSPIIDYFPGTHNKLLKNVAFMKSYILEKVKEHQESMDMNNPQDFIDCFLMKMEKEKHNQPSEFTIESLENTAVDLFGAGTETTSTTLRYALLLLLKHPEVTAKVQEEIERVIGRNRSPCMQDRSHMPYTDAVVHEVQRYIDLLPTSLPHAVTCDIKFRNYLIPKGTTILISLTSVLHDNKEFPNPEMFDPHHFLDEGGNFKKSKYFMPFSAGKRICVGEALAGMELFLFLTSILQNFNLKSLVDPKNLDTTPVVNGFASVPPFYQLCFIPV
Cytochrome P450 2C19, sequence (P33261 whole entry): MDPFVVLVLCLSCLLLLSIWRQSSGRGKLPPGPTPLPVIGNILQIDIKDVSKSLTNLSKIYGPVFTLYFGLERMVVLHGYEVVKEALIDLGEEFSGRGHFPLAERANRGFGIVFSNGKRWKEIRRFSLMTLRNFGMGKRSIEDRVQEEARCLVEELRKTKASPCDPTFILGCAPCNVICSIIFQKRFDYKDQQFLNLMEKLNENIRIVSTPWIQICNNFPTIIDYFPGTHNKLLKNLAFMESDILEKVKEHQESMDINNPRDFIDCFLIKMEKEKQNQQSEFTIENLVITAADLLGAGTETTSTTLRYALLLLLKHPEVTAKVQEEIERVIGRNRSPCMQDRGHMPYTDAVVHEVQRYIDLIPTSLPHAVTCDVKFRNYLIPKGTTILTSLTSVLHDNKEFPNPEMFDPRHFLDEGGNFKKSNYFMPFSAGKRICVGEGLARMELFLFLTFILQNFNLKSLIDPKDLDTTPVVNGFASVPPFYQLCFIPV

Usually IC50 stands for the concentration that gives 50% inhibition. The term fraction unbound denotes free concentration divided by total concentration. As usually defined, the Papp A→B is how fast a substance crosses the layer from the apical side. The term AUC denotes concentration integrated over time. One may read the bioavailability as the share of a dose that reaches the circulation, judged against a reference dose that is usually intravenous. In the case of `COc1nc(N(CC(C)(C)F)c2cc(Cl)c(F)cc2F)cnc1C(=O)[C@H]1C[C@@H]1C(=O)O` [AZD-9898], the “inhibition (INH)” value in [1], in [3] and in data set [9] was “Not Active” each time. In addition, the Vd in data set [2] was determined as 0.6 L/kg; in data set [21], 5.3 L/kg. Also, the 50% inhibitory concentration (IC50) in [4], in data set [8], in data set [15] and in data set [23] was over 30 µM each time. Moreover, the Activity result in data set [5] is “Non-Toxic”; in data set [11], “Non-Toxic”; in data set [13] it was “Dose-dependent effect”; in [14], “Dose-dependent effect”. Besides, the solubility thermodynamic at 24 h in data set [6] turned out to be 2080 µM (≈ 952 µg/mL). Moreover, the inhibition entry in data set [7] was “inactive”. Also, the fraction unbound turned out to be 0.025 in data set [10] and 0.059 in [17]. Moreover, the fEC50 in [12] came to 34 nM. Further, in data set [16], the apparent permeability from apical to basolateral (Papp A→B) turned out to be 61 ×10⁻⁶ cm/s. The AUC in data set [18] came to 4500 µM·h. In data set [19], the clearance turned out to be 2.3 mL/min/kg. Besides, the hepatocyte CLint at 1 µM in [20] is under 1.2 µL/min/1e6 cells. In data set [22], the bioavailability amounted to 100%. Also, in [24], the half-life was 12 h.

For the origin of these results see ChEMBL document CHEMBL4376816, “Discovery of the Oral Leukotriene C4 Synthase Inhibitor (1S,2S)-2-({5-[(5-Chloro-2,4-difluorophenyl)(2-fluoro-2-methylpropyl)amino]-3-methoxypyrazin-2-yl}carbonyl)cyclopropanecarboxylic Acid (AZD9898) as a New Treatment for Asthma” (J Med Chem, 2019).
